In publication PMC12516686, “Design of 2‑Aminobenzothiazole Derivatives Targeting Trypanosomatid PTR1 by a Multidisciplinary Fragment Hybridization Approach” (Journal of Medicinal Chemistry, 2025):
Where two headings read alike, the source gives them in different places.

Experiments:
[1] = tested on: Trypanosoma brucei brucei L427 wild-type (WT) bloodstream forms; experiment: Activity against T. brucei (resazurin-based assay); format: cell-based; details: Trypanosoma brucei; for inhibition at 10 µM: read-out: T. brucei % cell growth inhibition
Protocol: The parasites were grown in 5 mL T25 ventilated flasks containing complete HMI-9 medium. The medium was supplemented with 10% heat-inactivated FBS and 100 IU/mL penicillin/streptomycin. To maintain the cultures, subpassages were performed every 2 days at a concentration of 1 × 10^4 cells/mL.
The efficacy of the compounds against Trypanosoma brucei brucei L427 wild-type (WT) bloodstream forms was assessed using a resazurin-based assay as described elsewhere. T. b. brucei L427 bloodstream forms were prepared at a cell density of 5 × 10^3 cells/mL in supplemented complete medium. Serial dilutions of the test compounds were prepared in a final volume of 100 μL, and 100 μL of the parasite suspension was added to each well containing the compound dilutions, resulting in a total volume of 200 μL per well. A dose–response curve for pentamidine was included as a quality control in each assay, and each condition was tested in duplicate. The plates were incubated for 72 h under the specified conditions for the parasite. After the incubation period, 20 μL of a 0.5 mM resazurin solution was added to each well, and the plates were incubated for an additional 4 h under the same conditions. Fluorescence was measured at an excitation wavelength of 544 nm and an emission wavelength of 590 nm using a Synergy 2 Multi-Mode Reader (Biotek, Winooski, VT, USA). The results were expressed as the percentage of parasite growth inhibition compared to the control (untreated parasites) and represented the average of at least three independent experiments.

[2] = tested on: L. infantum intracellular amastigotes; experiment: Activity against L. infantum intracellular amastigotes (luciferase); format: cell-based, Leishmania infantum; details: for inhibition at 10 µM: Leishmania infantum, read-out: L. infantum % cell growth inhibition
Protocol: Luciferase-expressing L. infantum (MHOM/MA/67/ITMAP-263) axenic amastigotes were cultured in MAA/20 medium at 37 °C with 5% CO2. The parasites were maintained in 5 mL T25 ventilated flasks and subcultured every 7 days at a concentration of 1 × 10^6 cells/mL.
The activity against Leishmania infantum intracellular amastigotes was evaluated following the method described with modifications. THP-1 cells were differentiated into macrophages with PMA as described above. The cells were then infected with L. infantum axenic amastigotes expressing episomal luciferase at a macrophage-to-amastigote ratio of 1:10 for 4 h at 37 °C and 5% CO2. Noninternalized parasites were washed away, and compounds were added at various concentrations to a final volume of 100 μL. A dose–response curve for miltefosine was included in all assays as a quality control. Each condition was tested in quadruplicate. After 72 h of incubation, the medium was replaced with 100 μL of PBS, and 25 μL of Glo-lysis buffer from the Steady-Glo Luciferase Assay System (Promega, Madison, WI, USA) was added. The plates were agitated at 100 rpm for 10 min at room temperature. Subsequently, 30 μL of the Steady-Glo reagent (Promega, Madison, WI, USA) was added and incubated for 15 min in the dark under the same conditions. A total of 140 μL from each well was transferred to white-bottom 96-well plates, and luminescence intensity was measured using a Synergy 2 multimode reader (Biotek, Winooski, VT, USA). The antileishmanial effect was evaluated by comparison of the nontreated infected cells. The IC50 was determined (for miltefosine) through nonlinear regression analysis using GraphPad Prism version 8.1.1 for Windows (GraphPad Software, San Diego, CA, USA). Results represent the average of at least three independent experiments.

[3] = Cytotoxicity assay (MTT) on THP-1-derived macrophages; format: cell-based, Human; details: human, THP-1-derived macrophages
Protocol: Human leukemia cell line THP-1 (ATCC TIB202) cells were cultured in RPMI-1640 medium supplemented with 10% heat-inactivated fetal bovine serum (FBS), 2 mM L-glutamine, 100 IU/mL penicillin/streptomycin, and 20 mM HEPES. The cell line was maintained in a humidified incubator at 37 °C with 5% CO2. Subcultures were performed every 3 days in 20 mL of media at a concentration of 2 × 10^5 cells/mL in a T75 flask. All cell culture reagents were purchased from Lonza Bioscience (Morrisville, NC).
The cytotoxicity of the compounds on THP-1-derived macrophages was assessed using the colorimetric MTT assay (3-(4,5-dimethylthiazol-2-yl)-2,5-diphenyl tetrazolium bromide) as described elsewhere. THP-1 cells were suspended in RPMI complete medium at a density of 1 × 10^6 cells/mL, and 100 μL/well was seeded in a 96-well plate. The cells were differentiated into macrophages by adding 40 ng/mL of phorbol-myristate 13-acetate (PMA, Sigma, Saint Louis, MI, USA) for 24 h, followed by replacement with fresh medium for another 24 h. Subsequently, the cells were incubated with 100 μL of compounds, ranging from 100 to 12.5 μM, diluted in RPMI complete medium. Each condition was tested in triplicate. After 72 h of incubation at 37 °C with 5% CO2, the medium was removed, and 200 μL of 0.5 mg/mL MTT solution diluted in RPMI was added. The plates were incubated for an additional 4 h, after which 160 μL of the media was removed and replaced with 160 μL of 2-propanol. Absorbance was read at 570 nm using a Synergy 2 Multi-Mode Reader (Biotek, Winooski, VT, USA). Cytotoxicity was evaluated by presenting the CC50 (the concentration of the drug that reduces cell viability by 50%) interval or by determining the CC50 value through nonlinear regression analysis using GraphPad Prism version 8.1.1 for Windows (GraphPad Software, San Diego, CA, USA). Results represent the average of at least three independent experiments.

CYP2C19 = biological target: T1, CYP2C19 (Homo sapiens, UniProt P33261); experiment: Cytochrome P450 assay (P450-Glo), isoform 2C19; format: in vitro ADME
T1 construct: purchased Promega; host or cells: baculovirus-infected insect cells
Description: (§1) 3A4. The Promega P450-Glo assay platform was used with microsomal preparations of
(§2) cytochrome P450s from baculovirus-infected insect cells. […]

CYP2D6 = biological target: T2, CYP2D6 (Homo sapiens, UniProt P10635); experiment: Cytochrome P450 assay (P450-Glo), isoform 2D6; format: in vitro ADME
T2 construct: purchased Promega; host or cells: baculovirus-infected insect cells
Description: as §1, §2

CYP3A4 = biological target: T3, CYP3A4 (Homo sapiens, UniProt P08684); experiment: Cytochrome P450 assay (P450-Glo), isoform 3A4; format: in vitro ADME
T3 construct: purchased Promega; host or cells: baculovirus-infected insect cells
Description: as §1, §2

hERG = biological target: T4, hERG (Homo sapiens, UniProt Q12809); experiment: hERG liability assay
T4 construct: purchased Invitrogen

[4] = read-out: 95% confidence interval for EC50 (T. brucei)
[5] = read-out: T. brucei EC50 (converted)
[6] = at 10 μM, intracellular amastigotes
[7] = lower limit of CC50 interval, read-out: THP1 CC50 lower limit
[8] = upper limit of CC50 interval, read-out: THP1 CC50 upper limit
[9] = cytotoxic concentration for THP1 cells, read-out: CC50 THP1

T3 sequence (P08684 whole entry, canonical isoform): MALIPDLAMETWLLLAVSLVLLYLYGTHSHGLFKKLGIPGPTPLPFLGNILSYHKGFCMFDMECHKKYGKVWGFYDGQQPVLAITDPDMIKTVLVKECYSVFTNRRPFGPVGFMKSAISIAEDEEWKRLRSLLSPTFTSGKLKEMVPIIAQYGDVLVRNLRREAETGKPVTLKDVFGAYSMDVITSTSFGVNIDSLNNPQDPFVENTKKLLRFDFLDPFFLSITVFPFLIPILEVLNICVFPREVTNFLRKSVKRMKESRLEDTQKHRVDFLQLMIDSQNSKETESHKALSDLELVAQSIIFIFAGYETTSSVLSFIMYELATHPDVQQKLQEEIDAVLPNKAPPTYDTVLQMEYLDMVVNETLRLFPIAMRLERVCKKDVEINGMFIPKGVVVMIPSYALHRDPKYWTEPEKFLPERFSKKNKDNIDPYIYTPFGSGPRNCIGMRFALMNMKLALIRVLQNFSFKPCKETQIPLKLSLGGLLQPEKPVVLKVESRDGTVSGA
T2 sequence (P10635 whole entry, canonical isoform): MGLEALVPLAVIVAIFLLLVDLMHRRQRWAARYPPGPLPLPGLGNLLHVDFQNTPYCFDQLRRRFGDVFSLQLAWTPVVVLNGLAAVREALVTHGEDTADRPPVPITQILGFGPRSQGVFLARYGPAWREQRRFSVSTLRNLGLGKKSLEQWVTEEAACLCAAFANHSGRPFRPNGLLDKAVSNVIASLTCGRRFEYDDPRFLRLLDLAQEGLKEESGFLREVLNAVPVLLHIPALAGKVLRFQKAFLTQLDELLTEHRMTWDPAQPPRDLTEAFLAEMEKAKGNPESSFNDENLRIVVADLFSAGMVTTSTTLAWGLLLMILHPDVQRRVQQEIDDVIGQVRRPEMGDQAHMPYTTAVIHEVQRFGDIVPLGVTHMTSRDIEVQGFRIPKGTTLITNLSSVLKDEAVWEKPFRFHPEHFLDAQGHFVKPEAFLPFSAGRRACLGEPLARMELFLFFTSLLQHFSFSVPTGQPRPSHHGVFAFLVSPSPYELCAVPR
T1 sequence (P33261 whole entry, canonical isoform): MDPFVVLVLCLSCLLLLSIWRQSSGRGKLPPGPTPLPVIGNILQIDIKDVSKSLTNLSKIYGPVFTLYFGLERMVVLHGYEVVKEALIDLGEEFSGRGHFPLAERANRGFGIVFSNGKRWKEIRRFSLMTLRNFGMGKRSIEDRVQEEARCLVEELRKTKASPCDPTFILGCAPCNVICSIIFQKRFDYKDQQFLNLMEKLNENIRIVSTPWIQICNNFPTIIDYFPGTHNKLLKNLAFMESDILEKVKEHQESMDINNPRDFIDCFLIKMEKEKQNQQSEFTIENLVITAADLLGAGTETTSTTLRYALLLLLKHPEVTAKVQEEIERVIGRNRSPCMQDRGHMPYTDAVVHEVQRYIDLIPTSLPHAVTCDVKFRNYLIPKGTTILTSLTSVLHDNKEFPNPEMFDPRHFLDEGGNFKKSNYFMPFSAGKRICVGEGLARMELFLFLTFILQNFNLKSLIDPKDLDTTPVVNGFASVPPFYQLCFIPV
T4 sequence (Q12809 whole entry): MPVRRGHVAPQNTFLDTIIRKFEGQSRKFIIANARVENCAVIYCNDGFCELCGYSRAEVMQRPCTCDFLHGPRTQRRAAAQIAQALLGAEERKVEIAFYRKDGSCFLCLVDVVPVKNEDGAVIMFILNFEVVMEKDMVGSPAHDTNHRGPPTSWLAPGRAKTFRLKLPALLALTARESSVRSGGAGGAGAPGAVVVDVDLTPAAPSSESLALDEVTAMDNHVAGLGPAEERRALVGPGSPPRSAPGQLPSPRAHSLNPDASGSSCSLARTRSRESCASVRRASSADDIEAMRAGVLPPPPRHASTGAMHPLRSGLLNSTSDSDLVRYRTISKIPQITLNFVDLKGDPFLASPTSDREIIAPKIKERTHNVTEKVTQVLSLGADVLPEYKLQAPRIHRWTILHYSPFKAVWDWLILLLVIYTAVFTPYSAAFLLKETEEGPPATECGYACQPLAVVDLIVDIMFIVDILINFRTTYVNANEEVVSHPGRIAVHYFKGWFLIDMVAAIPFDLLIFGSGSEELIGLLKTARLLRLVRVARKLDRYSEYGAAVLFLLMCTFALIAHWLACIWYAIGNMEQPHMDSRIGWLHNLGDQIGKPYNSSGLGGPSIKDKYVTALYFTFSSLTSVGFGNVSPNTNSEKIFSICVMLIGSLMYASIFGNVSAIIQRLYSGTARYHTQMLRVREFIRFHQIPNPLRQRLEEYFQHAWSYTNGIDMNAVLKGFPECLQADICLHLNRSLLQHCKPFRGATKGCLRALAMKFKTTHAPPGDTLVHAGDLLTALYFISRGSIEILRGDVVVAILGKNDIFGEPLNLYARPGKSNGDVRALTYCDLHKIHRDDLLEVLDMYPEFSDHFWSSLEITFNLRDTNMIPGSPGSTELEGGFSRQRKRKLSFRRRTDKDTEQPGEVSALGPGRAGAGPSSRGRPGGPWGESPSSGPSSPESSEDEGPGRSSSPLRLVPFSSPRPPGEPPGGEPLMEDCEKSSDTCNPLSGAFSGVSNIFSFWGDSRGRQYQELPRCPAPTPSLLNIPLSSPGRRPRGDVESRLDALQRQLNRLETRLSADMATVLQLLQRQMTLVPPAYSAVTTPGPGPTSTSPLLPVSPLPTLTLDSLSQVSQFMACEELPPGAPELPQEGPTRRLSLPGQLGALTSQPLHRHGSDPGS

SMILES | inhibition at 10 µM ([1]; at 10 μM) | inhibition at 10 µM [2, 6] | CC50 at 72 h [3, 7] | CC50 at 72 h [3, 8] | IC50 (CYP2C19; read-out: CYP 2C19 IC50) | IC50 (CYP2D6) | IC50 (CYP3A4; read-out: CYP 3A4 IC50) | hERG IC50 (hERG) | CC50 at 72 h [3, 9] | IC50 (hERG) | further results
Nc1nc2ccc(C(=O)NCCc3ccc(Cl)c(Cl)c3)cc2s1 [Compound 1a, 2-amino-N-(3,4-dichlorophenethyl)benzo[d]thiazole-6-carboxamide] | 100% | < 0% | > 50 µM | < 100 µM | 8.5 µM | 0.1 µM | 1 µM | max |  |  | EC50 [1, 4]: 2.83 to 3.37 µM; EC50 [1, 5]: 3.1 µM; L. infantum % cell growth inhibition [2, 6]: inactive
Nc1nc2ccc(C(=O)N(CCc3ccc(Cl)c(Cl)c3)C3CC3)cc2s1 [Compound 1b, 2-amino-N-cyclopropyl-N-(3,4-dichlorophenethyl)benzo[d]thiazole-6-carboxamide] | 97% | ~50% | > 25 µM | < 50 µM | 4.7 µM | 0.9 µM | 0.7 µM | max | 25 to 50 µM |  | EC50 [1, 4]: 4.45 to 5.88 µM; EC50 [1, 5]: 5 µM; L. infantum % cell growth inhibition [2, 6]: 46±13%
Nc1nc2ccc(C(=O)N(Cc3ccc(Cl)c(Cl)c3)C3CC3)cc2s1 [Compound 1c, 2-amino-N-cyclopropyl-N-(3,4-dichlorobenzyl)benzo[d]thiazole-6-carboxamide] | 18 ± 8% | 24 ± 3% |  |  | 2.9 µM | 2.5 µM | 1.3 µM | max | > 100 µM |  | 
Nc1nc2ccc(CN(Cc3ccc(Cl)c(Cl)c3)C3CC3)cc2s1 [Compound 1d, 6-((cyclopropyl(3,4-dichlorobenzyl)amino)methyl)benzo[_d_]thiazol-2-amine] | 59 ± 2% | < 0% | > 25 µM | < 50 µM | 1.2 µM | 2.5 µM | 4 µM | max | 25 to 50 µM |  | 
Nc1nc2ccc(C(=O)N(CCc3ccc(Cl)c(Cl)c3)c3ccccc3)cc2s1 [Compound 1e, 2-amino-N-(3,4-dichlorophenethyl)-N-phenylbenzo[d]thiazole-6-carboxamide] | 31% | < 0% |  |  |  |  |  |  | > 100 µM |  | activity at 10 µM (CYP2C19; human, at 10 µM compound concentration, read-out: CYP 2C19 % residual activity): 31.1%; activity at 10 µM (CYP2D6; human, at 10 µM compound concentration, read-out: CYP 2D6 % residual activity): 59.9%; activity at 10 µM (CYP3A4; human, at 10 µM compound concentration, read-out: CYP 3A4 % residual activity): 26.3%; activity at 10 µM (hERG; human, at 10 µM compound concentration, read-out: hERG % residual activity): -34.8%
Nc1nc2ccc(C(=O)NCCc3ccccc3)cc2s1 [Compound 2a, 2-amino-N-phenethylbenzo[d]thiazole-6-carboxamide] | 27% | < 0% |  |  | 25.6 µM |  | 19.9 µM | significant blocking of hERG channels | > 100 µM | 4.5 µM | CYP 2D6 IC50 (CYP2D6): max
Nc1nc2ccc(C(=O)NCCc3cccc(Cl)c3)cc2s1 [Compound 2b, 2-amino-N-(3-chlorophenethyl)benzo[d]thiazole-6-carboxamide] |  |  | > 50 µM | < 100 µM |  | 0.9 µM |  |  |  | 2.8 µM | inhibition at 10 µM [1]: 51%; inhibition at 10 µM [2]: < 0%; IC50 (CYP2C19): 6.3 µM; IC50 (CYP3A4): 6.5 µM
Nc1nc2ccc(C(=O)NCCc3ccc(Cl)cc3)cc2s1 [Compound 2c, 2-amino-N-(4-chlorophenethyl)benzo[d]thiazole-6-carboxamide] | 27% | < 0% | > 50 µM | < 100 µM | 4.2 µM | 0.5 µM |  |  |  | 4.5 µM | CYP 3A4 IC50 (CYP3A4): max
Nc1nc2ccc(C(=O)NCCc3cccc(Br)c3)cc2s1 [Compound 2d, 2-amino-N-(3-bromophenethyl)benzo[d]thiazole-6-carboxamide] | 39 ± 5% | < 0% | > 50 µM | < 100 µM | 2.9 µM | 5 µM | 5.4 µM |  |  | 3.2 µM | 
Nc1nc2ccc(C(=O)NCCc3ccc(Br)cc3)cc2s1 [Compound 2e, 2-amino-N-(4-bromophenethyl)benzo[d]thiazole-6-carboxamide] | 37% | < 0% | > 25 µM | < 50 µM | 2.5 µM | 0.1 µM | 4.7 µM |  |  | 3.2 µM | 
Nc1nc2ccccc2n1Cc1ccc(Cl)c(Cl)c1 [I, 1-(3,4-dichlorobenzyl)-1H-benzimidazol-2-amine, reference compound] | < 0% | 29 ± 2% |  |  | 0.3 µM |  | 3.1 µM |  | 8 µM | 0.85 µM | 
